Results: patent US6737383B1, “Herbicidal oxadiazolidines” (priority 1999, dated 2004)

Columns and labels:
[1] = test system: velvetleaf; assay: Test B pre/postemergence velvetleaf; assay type: in vivo, Abutilon theophrasti; conditions: for Plant response rating, Velvetleaf: Postemergence
In short: (§1)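 Response is a visual 0-to-10 score relative to untreated plants, where 0 means no effect and 10 means complete control, taken twelve to sixteen days after application. Treatments went onto soil at planting and onto foliage of 1- to 4-leaf plants, using a surfactant-containing non-phytotoxic solvent.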

[2] = test system: pigweed; assay: Test B pre/postemergence pigweed; assay type: in vivo, Amaranthus retroflexus; conditions: for Plant response rating, Redroot pigweed: Postemergence
In short: as §1

[3] = test system: purple nutsedge; assay: Test B pre/postemergence purple nutsedge; assay type: in vivo, Cyperus rotundus
In short: as §1

[4] = test system: duck salad; assay: Test B flood test duck salad; assay type: in vivo, Heteranthera limosa
In short: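 Each value is a visual injury score relative to controls, with 10 meaning complete control and 0 no effect. Evaluation took place twelve to sixteen days after the 2-leaf-stage plants were treated and kept in the greenhouse.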

[5] = test system: crabgrass; assay: Test B pre/postemergence crabgrass; assay type: in vivo, Digitaria sanguinalis
In short: as §1

[6] = test system: rape; assay: Test B pre/postemergence rape; assay type: in vivo, Brassica napus
In short: as §1

[7] = test system: soybean; assay: Test B pre/postemergence soybean; assay type: in vivo, Glycine max; conditions: for Plant response rating, Soybean: Postemergence; for Plant response rating, Soybean / Soybean plant response rating: scale of 0 to 10 where 0 is no effect and 10 is complete control
In short: as §1

[8] = test system: sugar beet; assay: Test B pre/postemergence sugar beet; assay type: in vivo, Beta vulgaris; conditions: for Plant response rating, Sugarbeets: Postemergence
In short: as §1

[9] = test system: wheat; assay: Test B pre/postemergence wheat; assay type: in vivo, Triticum aestivum; conditions: for Plant response rating, Wheat: Postemergence
In short: as §1

[10] = test system: corn; assay: Test B pre/postemergence corn; assay type: in vivo, Zea mays
In short: as §1

[11] = test system: giant foxtail; assay: Test B pre/postemergence giant foxtail; assay type: in vivo, Setaria faberii
In short: as §1

[12] = test system: cocklebur; assay: Test B pre/postemergence cocklebur; assay type: in vivo, Xanthium strumarium
In short: as §1

[13] = test system: morningglory; assay: Test B pre/postemergence morningglory; assay type: in vivo, Ipomoea hederacea
In short: as §1

[14] = test system: bedstraw; assay: Test B pre/postemergence bedstraw; assay type: in vivo, Galium aparine
In short: as §1

[15] = test system: surinam grass; assay: Test B pre/postemergence surinam grass; assay type: in vivo, Brachiaria decumbens
In short: as §1

[16] = Rate 125 g/ha, scale of 0 to 10 where 0 is no effect and 10 is complete control
[17] = Rate 500 g/ha, scale of 0 to 10 where 0 is no effect and 10 is complete control
[18] = Preemergence, Rate 62 g/ha, scale 0 to 10 (0 no effect, 10 complete control)
[19] = Preemergence, Rate 125 g/ha, scale of 0 to 10 where 0 is no effect and 10 is complete control
[20] = Preemergence, Rate 500 g/ha, scale of 0 to 10 where 0 is no effect and 10 is complete control
[21] = Rate 250 g/ha, scale of 0 to 10 where 0 is no effect and 10 is complete control
[22] = Postemergence, Rate 62 g/ha, scale of 0 to 10, 0 is no effect, 10 is complete control
[23] = Postemergence, Rate 125 g/ha, scale of 0 to 10 where 0 is no effect and 10 is complete control
[24] = Rate 250 g/ha, Postemergence, scale of 0 to 10 where 0 is no effect and 10 is complete control
[25] = Postemergence, Rate 500 g/ha, scale of 0 to 10 where 0 is no effect and 10 is complete control

CC(C)N(C(=O)n1oc(=O)n(CC2CCC2)c1=O)c1ccccc1 [Compound 580]
Plant response rating, Velvetleaf [1, 16]: 2 | Plant response rating, Velvetleaf [1, 17]: 3 | Velvetleaf plant response rating [1, 18]: 0 | Velvetleaf plant response rating [1, 19]: 0 | Velvetleaf plant response rating (0 to 10 scale) ([1]; Preemergence, Rate 250 g/ha): 2 | Velvetleaf plant response rating [1, 20]: 5 | Plant response rating, Velvetleaf [1, 21]: 2 | Plant response rating, Redroot pigweed [2, 16]: 5 | Plant response rating, Redroot pigweed [2, 17]: 9 | Redroot pigweed plant response rating [2, 18]: 9 | Redroot pigweed plant response rating [2, 19]: 10 | Redroot pigweed plant response rating (0 to 10 scale) ([2]; Preemergence, Rate 250 g/ha): 10 | Redroot pigweed plant response rating [2, 20]: 10 | Plant response rating, Redroot pigweed [2, 21]: 5 | Nutsedge plant response rating [3, 22]: 0 | Plant response rating, Nutsedge [3, 23]: 0 | Nutsedge plant response rating [3, 18]: 0 | Nutsedge plant response rating [3, 19]: 0 | Nutsedge plant response rating (0 to 10 scale) ([3]; Preemergence, Rate 250 g/ha): 0 | Nutsedge plant response rating [3, 20]: 5 | Plant response rating, Ducksalad (0 to 10 scale, 0 is no effect, 10 is complete control) ([4]; Rate 62 g/ha, flood test species, Pre-emergence, visual evaluation after twelve to sixteen days): 0 | Ducksalad plant response rating (0 to 10 scale, 0 is no effect, 10 is complete control) ([4]; Rate 125 g/ha, under heading Pre-emergence, flood test species, visual evaluation after twelve to sixteen days): 0 | Ducksalad plant response rating ([4]; Rate 250 g/ha, Pre-emergence (flood test species), scale 0 to 10, 0 is no effect, 10 is complete control): 0 | Ducksalad plant response rating ([4]; Rate 500 g/ha, Pre-emergence section of Table B, 0 to 10 scale (0 no effect, 10 complete control)): 0 | Crabgrass plant response rating [5, 22]: 0 | Plant response rating, Crabgrass [5, 23]: 3 | Crabgrass plant response rating [5, 18]: 6 | Crabgrass plant response rating [5, 19]: 6 | Crabgrass plant response rating (0 to 10 scale) ([5]; Preemergence, Rate 250 g/ha): 9 | Crabgrass plant response rating [5, 20]: 9 | Plant response rating, Crabgrass [5, 24]: 9 | Rape plant response rating [6, 22]: 4 | Plant response rating, Rape [6, 23]: 6 | Plant response rating, Rape [6, 25]: 8 | Rape plant response rating [6, 18]: 0 | Rape plant response rating [6, 19]: 3 | Rape plant response rating (0 to 10 scale) ([6]; Preemergence, Rate 250 g/ha): 7 | Rape plant response rating [6, 20]: 8 | Plant response rating, Rape [6, 24]: 7 | Plant response rating, Soybean ([7]; Rate 125 g/ha): 4 | Plant response rating, Soybean ([7]; Rate 500 g/ha): 4 | Soybean plant response rating ([7]; Preemergence, Rate 125 g/ha): 0 | Soybean plant response rating (0 to 10 scale) ([7]; Preemergence, Rate 250 g/ha): 0 | Soybean plant response rating ([7]; Preemergence, Rate 500 g/ha): 0 | Plant response rating, Soybean ([7]; Rate 250 g/ha): 4 | Plant response rating, Sugarbeets [8, 16]: 4 | Plant response rating, Sugarbeets [8, 17]: 6 | Sugarbeets plant response rating [8, 18]: 0 | Sugarbeets plant response rating [8, 19]: 0 | Sugarbeets plant response rating (0 to 10 scale) ([8]; Preemergence, Rate 250 g/ha): 4 | Sugarbeets plant response rating [8, 20]: 5 | Plant response rating, Sugarbeets [8, 21]: 5 | Plant response rating, Wheat [9, 16]: 0 | Plant response rating, Wheat [9, 17]: 3 | Wheat plant response rating [9, 18]: 0 | Wheat plant response rating [9, 19]: 0 | Wheat plant response rating (0 to 10 scale) ([9]; Preemergence, Rate 250 g/ha): 2 | Wheat plant response rating [9, 20]: 5 | Plant response rating, Wheat [9, 21]: 0 | Corn plant response rating [10, 22]: 0 | Plant response rating, Corn [10, 23]: 0 | Plant response rating, Corn [10, 25]: 0 | Corn plant response rating [10, 18]: 0 | Corn plant response rating [10, 19]: 0 | Corn plant response rating (0 to 10 scale) ([10]; Preemergence, Rate 250 g/ha): 2 | Corn plant response rating [10, 20]: 5 | Plant response rating, Corn [10, 24]: 0 | Giant foxtail plant response rating [11, 22]: 0 | Plant response rating, Giant foxtail [11, 23]: 6 | Plant response rating, Giant foxtail [11, 25]: 8 | Giant foxtail plant response rating [11, 18]: 9 | Giant foxtail plant response rating [11, 19]: 9 | Giant foxtail plant response rating (0 to 10 scale) ([11]; Preemergence, Rate 250 g/ha): 10 | Giant foxtail plant response rating [11, 20]: 10 | Plant response rating, Giant foxtail [11, 24]: 8 | Cocklebur plant response rating [12, 22]: 3 | Plant response rating, Cocklebur [12, 23]: 3 | Plant response rating, Cocklebur [12, 25]: 6 | Cocklebur plant response rating [12, 18]: 0 | Cocklebur plant response rating [12, 19]: 0 | Cocklebur plant response rating (0 to 10 scale) ([12]; Preemergence, Rate 250 g/ha): 0 | Cocklebur plant response rating [12, 20]: 3 | Plant response rating, Cocklebur [12, 24]: 3 | Morningglory plant response rating [13, 22]: 7 | Plant response rating, Morningglory [13, 23]: 7 | Plant response rating, Morningglory [13, 25]: 10 | Morningglory plant response rating [13, 18]: 0 | Morningglory plant response rating [13, 19]: 0 | Morningglory plant response rating (0 to 10 scale) ([13]; Preemergence, Rate 250 g/ha): 0 | Morningglory plant response rating [13, 20]: 0 | Plant response rating, Morningglory [13, 24]: 8 | Bedstraw plant response rating [14, 22]: 3 | Plant response rating, Bedstraw [14, 25]: 9 | Bedstraw plant response rating [14, 18]: 0 | Bedstraw plant response rating [14, 19]: 4 | Bedstraw plant response rating (0 to 10 scale) ([14]; Preemergence, Rate 250 g/ha): 6 | Bedstraw plant response rating [14, 20]: 6 | Plant response rating, Bedstraw [14, 24]: 0 | B. signalgrass plant response rating [15, 22]: 0 | Plant response rating, B. signalgrass [15, 23]: 2 | Plant response rating, B. signalgrass [15, 25]: 8 | B. signalgrass plant response rating [15, 18]: 2 | B. signalgrass plant response rating [15, 19]: 6 | B. signalgrass plant response rating (0 to 10 scale, 0 is no effect, 10 is complete control) ([15]; Preemergence, Rate 250 g/ha): 6 | B. signalgrass plant response rating [15, 20]: 9 | Plant response rating, B. signalgrass [15, 24]: 5
